According to patent US9034874B2, “Carbamate/urea derivatives” (NOVARTIS AG, priority 2012, dated 2015):

Tested on: wakefulness in rats
Assay: Effects on wakefulness (EEG/EMG recordings)
Type: in vivo, rat
Conditions: oral, first 4 hours after administration
Experimental: Animals: Male Sprague-Dawly rats (280-320 g) were housed individually under an ambient temperature of 22±0.5° C. with a relative humidity of 60±2% and an automatically controlled 12-h light/12-h dark cycle (light on at 07:00, illumination intensity 100 lux). The animals had free access to food and water.
EEG recording set up, Polygraphic Recordings and Vigilance State Analysis: Under pentobarbital anesthesia (50 mg/kg, i.p.), rats were chronically implanted with EEG and electromyogram (EMG) electrodes for polysomnographic recordings (Huang et al, J Neurosci, 23, 5975-5983, 2003). Two stainless steel screws (1 mm in diameter) EEG electrodes (the first screw: anteroposterior (AP), +2 mm; left-right (LR), −2 mm; and the second: AP, −2 mm; LR, −2 mm, AP from bregma, LR from lambda) and a reference electrode (opposite to EEG screw side, AP, +3 mm; LR, 3 mm) were surgically implanted and 3 stainless steel screws for anchorage to the skull. Two insulated stainless steel, Teflon-coated wires were bilaterally placed into both trapezius muscles and served as EMG electrodes for rats. All electrodes were attached to a micro connector and fixed to the skull with dental cement. […]
For the study of spontaneous sleep-wakefulness cycles, each animal was recorded for 24 h beginning at 19:00 P.M., the offset of the light period. The animals then entered the pharmacological phase of the study, in which sleep-wakefulness parameters were recorded for 72 h. […]
Cortical EEG and EMG signals were amplified, filtered (EEG, 0.5-30 Hz; EMG, 20-200 Hz), digitized at a sampling rate of 128 Hz, and recorded by using SLEEPSIGN (Kissei Comtec, Nagano, Japan). When complete, polygraphic recordings were automatically scored offline by 4-sec epochs as wake, REM, and NREM sleep by SleepSign according to standard criteria (Huang et al, Nat Neurosci, 8, 858-859, 2005). […]
Time-course changes in the amounts of sleep-wake, sleep/wake stage transition number, as well as number and duration of sleep/wake bouts in light/dark phases, were analyzed by the paired t test, with each animal serving as its own control. […]

SMILES | % increase in wakefulness at 10 mg
CC(C)N1CCN(C(=O)OC2CCN(c3ccc(=O)[nH]n3)CC2)CC1 [Example 1.3, 1-(6-oxo-1,6-dihydropyridazin-3-yl)piperidin-4-yl 4-isopropylpiperazine-1-carboxylate] | 19.1%
CC(C)N1CCN(C(=O)OC2CCN(c3ccc(=O)n(C)n3)CC2)CC1 [Example 1.2, 1-(1-methyl-6-oxo-1,6-dihydropyridazin-3-yl)piperidin-4-yl 4-isopropylpiperazine-1-carboxylate] | 48.8%
O=C(OC1CCN(c2ccc(=O)[nH]n2)CC1)N1CCN(C2CCC2)CC1 [Example 1.1, 1-(6-oxo-1,6-dihydropyridazin-3-yl)piperidin-4-yl 4-cyclobutylpiperazine-1-carboxylate] | 42.1%
